The numbers were not newly measured in patent US6740655B2, “Pyrimidine carboxamides useful as inhibitors of PDE4 isozymes” (Pfizer Inc, priority 2000, dated 2004), which cites them from elsewhere.

Molecules are shown by their SMILES. Entries after “also recorded” stand apart in the source; their conditions may differ. Where two headings read alike, the source gives them in different places.

Data set [1] relates to lipopolysaccharide-induced bowel erythrocyte extravasation. The following applies: rats; b385: pretreatment i.p. 3×, pentoxifylline 5 to 50, rolipram 10 to 30, debufylline 0.1 to 3 mg/kg.
Data set [2] has as its system T-cell mediated hepatic failure. Particulars: mouse, in vivo.
Data set [3] has as its system lipopolysaccharide-induced mesenteric blood flow fall.
For data set [4], the system named is psoriatic lesions.
For data set [5] the following is noted: in vivo.
The test system of data set [6] is high-affinity rolipram binding site (Sr).
Data set [7] has as its system inflammatory parameters, atopic dermatitis.
In data set [8] the test system is tumor cells. The following applies: at micromolar concentrations.
In data set [9] the test system is PDE4 from U937 cells.
For data set [10], the system named is antigen-induced eosinophilia. Particulars: rat.
For data set [11] the following is noted: rat.
The conditions of data set [12]: doses up to 400 mg, 54 subjects.
The test system of data set [13] is guinea-pig trachea.
Data set [14] deals with late reactions to inhaled allergen. Particulars: b18: 9.5 days oral, 15 and 30 mg.
Data set [15] relates to pulmonary artery rings.
The test system of data set [16] is allergic rhinitis. Particulars: in vivo.

`COc1ccc(C2CNC(=O)C2)cc1OC1CCCC1` (stereo not drawn) [rolipram]: in data set [1], the “lipopolysaccharide-induced bowel erythrocyte extravasation” value was “attenuated”. In addition, the “concanavalin A-induced IL4 release” value in data set [2] is listed as “suppress”. The “intestinal hypoperfusion in dogs” value in data set [3] is reported as “attenuated”. As for `COc1ccc(CC2CNC(=O)N2)cc1OC1CCCC1` (stereo not drawn) [Ro 20-1724], in data set [4] (in vivo), the “adverse systemic or cutaneous effects” value is “without adverse systemic or cutaneous effects”. Moreover, in [4] (versus vehicle), the “effect on psoriatic lesions” value is listed as “improve psoriatic lesions”.

For the molecule `COc1ccc(C2CNC(=O)NC2)cc1OC1CC2CCC1C2` (stereo not drawn) [CP-80,633], the “emesis / nausea and vomiting” value in [5] was “elicit emesis”. Besides, the “affinity at the Sr” value in [6] is “high affinity”. Besides, in data set [7] (human, in vivo), the adverse effects result is on record as “no adverse effects”. Besides, the inflammatory parameters entry in data set [7] (topical, bilaterally over eight days, twenty patients) was “effectively inhibit all of the inflammatory parameters tested”.

For `Clc1nc2c(N3CCCC3)nc(N3CCNCC3)nc2nc1NCc1ccccc1` [Formula (0.0.55)], in [8], the “growth of tumor cells” value is “inhibit the growth of tumor cells”.

For `COc1cc2c3c(c1)C(c1ccccc1)=N[C@@H](NC(=O)c1cc4ccccc4cn1)C(=O)N3CC2` [Cl-1018], in data set [9] (read-out: IC50 PDE4 in U937 cells), the half-inhibitory concentration (IC50) was 1100 nM. Further, the “inhibition of antigen-induced eosinophilia” value in data set [10] was “active”. For the same molecule, the “oral potency ED50” value in data set [10] (oral) is 5 mg/kg. Moreover, the oral bioavailability in data set [11] was 57%. Also, the adverse events result in data set [12] is recorded as “no adverse events were reported”. On to `CC1CC1c1nc(NC2CC2)nc(N2CCOCC2)n1` (stereo not drawn) [Formula (0.0.57)], for which the “relaxant activity in guinea-pig trachea model” value in [13] was “potent relaxant agents”. For `COC(=O)c1ccc2c(=O)n(C3NC(c4ccccc4)c4cc(N)cc5c4N(CC5)C3=O)cnc2c1` (stereo not drawn) [Formula (0.0.53)], the IC50 in data set [9] (read-out: IC50 against the PDE4 from U937 cells) is 3 nM.

For the molecule `CCCCn1c(=O)c2c(ncn2CC(C)=O)n(CCCC)c1=O` [denbufylline], the “lipopolysaccharide-induced bowel erythrocyte extravasation” value in data set [1] is given as “attenuated”. Besides, the “intestinal hypoperfusion in dogs” value in [3] is reported as “attenuated”. Consider `COc1ccc([C@H](Cc2ccncc2)c2ccccc2)cc1OC1CCCC1` [CDP840], for which, in data set [14], the “late reactions / late-phase response” value is “suppression of late reactions; also recorded: significant inhibition of late-phase response”. For the molecule `O=C(NC1NC(c2ccccc2)c2cccc3c2N(CC3)C1=O)c1ccncc1` (stereo not drawn) [PD-168787], in [10], the “inhibition of antigen-induced eosinophilia” value is recorded as “activity”.

`Cc1[nH]c(=O)c(C#N)cc1-c1ccncc1` [milrinone]: in data set [15], the “relaxant activities of isoproterenol and forskolin” value was “The same effect has been observed”. As to `O=C(Nc1c(Cl)cncc1Cl)C(=O)c1cn(Cc2ccc(F)cc2)c2ccc(O)cc12` [AWD-12,281], the “activity in rat model of allergic rhinitis” value in data set [16] is on record as “active”.

Turning to `O=S1(=O)CCN(c2nc(NC3CC3)nc(C3CC3)n2)C1` [Formula (0.0.56)], the “relaxant activity in guinea-pig trachea model” value in data set [13] was “potent relaxant agents”.
